Reference: patent US11702418B2, “SOS1 inhibitors” (priority 2019, dated 2023)
Counter-ions that a name gives are not always drawn. Like-named read-outs stand apart in the source and are kept apart here.

Key:
[1] = target: recombinant human SOS1 polypeptide (amino acids 560-1049) (Homo sapiens (Human), UniProt Q07889); test: biochemical; format: binding; conditions: read-out: Ki, Inhibition of Labeled Tracer Binding to SOS1
pERK in MKN1 cells = test: cells; format: cell-based; conditions: Homo sapiens
[2] = HTRF displacement, Cy5 labelled tracer, Morrison equation for competitive binding
[3] = MKN-1, pERK inhibition, In-Cell Western, MKN1 or H358 cells (Table 24 does not say which), 0.5-1 hour incubation, read-out: IC50

Sequence of recombinant human SOS1 polypeptide (amino acids 560-1049) (Q07889 560-1049): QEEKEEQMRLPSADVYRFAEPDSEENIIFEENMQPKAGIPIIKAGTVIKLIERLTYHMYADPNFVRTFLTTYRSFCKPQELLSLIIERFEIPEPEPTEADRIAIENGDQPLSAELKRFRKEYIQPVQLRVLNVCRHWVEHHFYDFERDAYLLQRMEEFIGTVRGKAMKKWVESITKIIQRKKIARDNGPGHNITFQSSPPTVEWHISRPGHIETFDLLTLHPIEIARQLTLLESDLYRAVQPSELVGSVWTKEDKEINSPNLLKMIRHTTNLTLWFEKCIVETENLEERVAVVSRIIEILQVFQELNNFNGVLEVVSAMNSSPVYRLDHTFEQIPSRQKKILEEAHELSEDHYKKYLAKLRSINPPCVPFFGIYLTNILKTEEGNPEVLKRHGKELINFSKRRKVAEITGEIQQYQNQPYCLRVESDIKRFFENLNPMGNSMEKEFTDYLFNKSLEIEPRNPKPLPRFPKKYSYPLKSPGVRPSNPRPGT

SMILES | Ki [1, 2] | IC50 (pERK in MKN1 cells; [3]) | Ki [1] | IC50 (pERK in MKN1 cells; MKN-1)
Cc1c([C@@H](C)Nc2nnc(C)c3ccc(N4CC(O)C4)cc23)cccc1C(F)(F)F [Example 10-48, (R)-1-(1-methyl-4-((1-(2-methyl-3-(trifluoromethyl)phenyl)ethyl)amino)phthalazin-6-yl)azetidin-3-ol] | 1.35 nM | 75 nM | – | –
Cc1c([C@@H](C)Nc2nnc(C)c3ccc(N4CCC(N5CCC(F)(F)C5)CC4)cc23)cccc1C(F)(F)F [Example 10-49, (R)-7-(4-(3,3-difluoropyrrolidin-1-yl)piperidin-1-yl)-4-methyl-N-(1-(2-methyl-3-(trifluoromethyl)phenyl)ethyl)phthalazin-1-amine Formate salt] | – | – | 0.56 nM | 107 nM
Cc1nnc(N[C@H](C)c2cc(F)cc(C(F)(F)F)c2)c2cc(N3CCOCC3)ccc12 [Example 10-50, (R)-N-(1-(3-fluoro-5-(trifluoromethyl)phenyl)ethyl)-4-methyl-7-morpholinophthalazin-1-amine] | 3.74 nM | 205 nM | – | –
Cc1c(C#N)cccc1[C@@H](C)Nc1nnc(C)c2ccc(N3CCOCC3)cc12 [Example 10-51, (R)-2-methyl-3-(1-((4-methyl-7-morpholinophthalazin-1-yl)amino)ethyl)benzonitrile] | 1.4 nM | 39 nM | – | –
Cc1nnc(N[C@H](C)c2cc(F)cc(C#N)c2)c2cc(N3CCOCC3)ccc12 [Example 10-52, (R)-3-fluoro-5-(1-((4-methyl-7-morpholinophthalazin-1-yl)amino)ethyl)benzonitrile] | 44.5 nM | 286 nM | – | –
Cc1c(C#N)cccc1[C@@H](C)Nc1nnc(C)c2ccc(N3C[C@H]4C[C@@H]3CO4)cc12 [Example 10-54, 3-((R)-1-((7-((1R,4R)-2-oxa-5-azabicyclo[2.2.1]heptan-5-yl)-4-methylphthalazin-1-yl)amino)ethyl)-2-methylbenzonitrile Formate salt] | – | – | 1.34 nM | 48 nM
Cc1c(C#N)cccc1[C@@H](C)Nc1nnc(C)c2ccc(N3CCNCC3)cc12 [Example 10-55, (R)-2-methyl-3-(1-((4-methyl-7-(piperazin-1-yl)phthalazin-1-yl)amino)ethyl)benzonitrile Formate salt] | – | – | 0.76 nM | 76 nM
Cc1c(C#N)cccc1[C@@H](C)Nc1nnc(C)c2ccc(N3CCN4CCOC[C@@H]4C3)cc12 [Example 10-56, 3-((R)-1-((7-((S)-hexahydropyrazino[2,1-c][1,4]oxazin-8(1H)-yl)-4-methylphthalazin-1-yl)amino)ethyl)-2-methylbenzonitrile Formate salt] | – | – | 1.59 nM | 26 nM
Cc1c(C#N)cccc1[C@@H](C)Nc1nnc(C)c2ccc(N3CCC(N(C)C)CC3)cc12 [Example 10-57, (R)-3-(1-((7-(4-(dimethylamino)piperidin-1-yl)-4-methylphthalazin-1-yl)amino)ethyl)-2-methylbenzonitrile Formate salt] | – | – | 0.75 nM | 46 nM
Cc1c(C#N)cccc1[C@@H](C)Nc1nnc(C)c2ccc(N3CC(C)(O)C3)cc12 [Example 10-58, (R)-3-(1-((7-(3-hydroxy-3-methylazetidin-1-yl)-4-methylphthalazin-1-yl)amino)ethyl)-2-methylbenzonitrile] | 5.78 nM | 52 nM | – | –
Cc1nnc(N[C@H](C)c2ccc(F)cc2Cl)c2cc(N3CCOCC3)ccc12 [Example 10-59, (R)-N-(1-(2-chloro-4-fluorophenyl)ethyl)-4-methyl-7-morpholinophthalazin-1-amine Hydrochloride salt] | – | – | 30.9 nM | 570 nM
Cc1cccc(C(C)Nc2nnc(C)c3ccc(N4CCOCC4)cc23)c1Cl (stereo not drawn) [Example 10-60, N-(1-(2-chloro-3-methylphenyl)ethyl)-4-methyl-7-morpholinophthalazin-1-amine] | 2 nM | 961 nM | – | –
Cc1cc([C@@H](C)Nc2nnc(C)c3ccc(N4CCOCC4)cc23)cc(C(F)(F)F)c1 [Example 10-61, (R)-4-methyl-N-(1-(3-methyl-5-(trifluoromethyl)phenyl)ethyl)-7-morpholinophthalazin-1-amine] | 1.61 nM | 57 nM | – | –
Cc1c([C@@H](C)Nc2nnc(C)c3ccc(N4CCNC[C@H](F)C4)cc23)cccc1C(F)(F)F [Example 10-62, 7-((S)-6-fluoro-1,4-diazepan-1-yl)-4-methyl-N-((R)-1-(2-methyl-3-(trifluoromethyl)phenyl)ethyl)phthalazin-1-amine Hydrochloride salt] | – | – | 0.9 nM | 76 nM
Cc1c([C@@H](C)Nc2nnc(C)c3ccc(N4CCNC[C@@H](F)C4)cc23)cccc1C(F)(F)F [Example 10-63, 7-((R)-6-fluoro-1,4-diazepan-1-yl)-4-methyl-N-((R)-1-(2-methyl-3-(trifluoromethyl)phenyl)ethyl)phthalazin-1-amine Hydrochloride salt] | – | – | 0.54 nM | 50 nM
Cc1c([C@@H](C)Nc2nnc(C)c3ccc(N4CCNS(=O)(=O)CC4)cc23)cccc1C(F)(F)F [Example 10-64, (R)-5-(1-methyl-4-((1-(2-methyl-3-(trifluoromethyl)phenyl)ethyl)amino)phthalazin-6-yl)-1,2,5-thiadiazepane 1,1-dioxide] | 1.7 nM | 513 nM | – | –
Cc1c(C(F)F)cccc1[C@@H](C)Nc1nnc(C)c2ccc(N3CCOCC3)cc12 [Example 10-65, (R)-N-(1-(3-(difluoromethyl)-2-methylphenyl)ethyl)-4-methyl-7-morpholinophthalazin-1-amine Hydrochloride salt] | – | – | 0.95 nM | 23 nM
Cc1c([C@@H](C)Nc2nnc(C)c3ccc(N4CC(C)(N(C)C)C4)cc23)cccc1C(F)(F)F [Example 10-66, (R)-7-(3-(dimethylamino)-3-methylazetidin-1-yl)-4-methyl-N-(1-(2-methyl-3-(trifluoromethyl)phenyl)ethyl)phthalazin-1-amine] | 0.78 nM | 108 nM | – | –
Cc1c(C#N)cccc1[C@@H](C)Nc1nnc(C)c2ccc(N3CCC(F)(F)CC3)cc12 [Example 10-67, (R)-3-(1-((7-(4,4-difluoropiperidin-1-yl)-4-methylphthalazin-1-yl)amino)ethyl)-2-methylbenzonitrile] | 2.57 nM | 44 nM | – | –
Cc1c(C#N)cccc1[C@@H](C)Nc1nnc(C)c2ccc(N3CCC(N4CCC4)CC3)cc12 [Example 10-68, (R)-3-(1-((7-(4-(azetidin-1-yl)piperidin-1-yl)-4-methylphthalazin-1-yl)amino)ethyl)-2-methylbenzonitrile] | 0.75 nM | 36 nM | – | –
Cc1c(C#N)cccc1[C@@H](C)Nc1nnc(C)c2ccc(N3CC4(CCN(C)C4=O)C3)cc12 [Example 10-69, (R)-2-methyl-3-(1-((4-methyl-7-(6-methyl-5-oxo-2,6-diazaspiro[3.4]octan-2-yl)phthalazin-1-yl)amino)ethyl)benzonitrile] | 3.07 nM | 39 nM | – | –
Cc1c(C#N)cccc1[C@@H](C)Nc1nnc(C)c2ccc(N3CCN(c4cnn(C)c4)CC3)cc12 [Example 10-70, (R)-2-methyl-3-(1-((4-methyl-7-(4-(1-methyl-1H-pyrazol-4-yl)piperazin-1-yl)phthalazin-1-yl)amino)ethyl)benzonitrile] | 0.89 nM | 15 nM | – | –
Cc1c(C#N)cccc1[C@@H](C)Nc1nnc(C)c2ccc(N3C[C@H]4CC[C@@H]3CN4C)cc12 [Example 10-71, 2-methyl-3-((R)-1-((4-methyl-7-((1R,4R)-5-methyl-2,5-diazabicyclo[2.2.2]octan-2-yl)phthalazin-1-yl)amino)ethyl)benzonitrile] | 0.39 nM | 19 nM | – | –
Cc1ncccc1[C@@H](C)Nc1nnc(C)c2ccc(N3CCOCC3)cc12 [Example 10-72, (R)-4-methyl-N-(1-(2-methylpyridin-3-yl)ethyl)-7-morpholinophthalazin-1-amine] | 46.1 nM | 466 nM | – | –
Cc1c(C#N)cccc1[C@@H](C)Nc1nnc(C)c2ccc(N3CC4(CCN(C)C4)C3)cc12 [Example 10-73, (R)-2-methyl-3-(1-((4-methyl-7-(6-methyl-2,6-diazaspiro[3.4]octan-2-yl)phthalazin-1-yl)amino)ethyl)benzonitrile formate salt] | – | – | 0.63 nM | 49 nM
Cc1c(C#N)cccc1[C@@H](C)Nc1nnc(C)c2ccc(N3CC(C)(N(C)C)C3)cc12 [Example 10-74, (R)-3-(1-((7-(3-(dimethylamino)-3-methylazetidin-1-yl)-4-methylphthalazin-1-yl)amino)ethyl)-2-methylbenzonitrile Hydrochloride salt] | – | – | 4.26 nM | 65 nM
Cc1c(C#N)cccc1[C@@H](C)Nc1nnc(C)c2ccc(N3CC(N(C)C)C3)cc12 [Example 10-75, (R)-3-(1-((7-(3-(dimethylamino)azetidin-1-yl)-4-methylphthalazin-1-yl)amino)ethyl)-2-methylbenzonitrile Hydrochloride salt] | – | – | 6.51 nM | 56 nM
Cc1nnc(N[C@H](C)c2cccc(C(F)(F)F)c2F)c2cc(N3CC(N(C)C)C3)ccc12 [Example 10-76, (R)-7-(3-(dimethylamino)azetidin-1-yl)-N-(1-(2-fluoro-3-(trifluoromethyl)phenyl)ethyl)-4-methylphthalazin-1-amine] | 3.44 nM | 85 nM | – | –
Cc1nnc(N[C@H](C)c2cccc(C(F)(F)F)c2F)c2cc(N3CCOCC3)ccc12 [Example 10-77, (R)-N-(1-(2-fluoro-3-(trifluoromethyl)phenyl)ethyl)-4-methyl-7-morpholinophthalazin-1-amine] | 0.75 nM | 102 nM | – | –
Cc1nnc(N[C@H](C)c2cccc(C(F)(F)F)c2F)c2cc(N3CC(C)(N(C)C)C3)ccc12 [Example 10-78, (R)-7-(3-(dimethylamino)-3-methylazetidin-1-yl)-N-(1-(2-fluoro-3-(trifluoromethyl)phenyl)ethyl)-4-methylphthalazin-1-amine] | 1.16 nM | 114 nM | – | –
